According to patent publication US20120172359A1 (NOVARTIS AG, priority 2010, published 2012):
Counter-ions that a name gives are not always drawn.

How the values were obtained:
[1] = tested on: cellular release of amyloid peptide 1-40; experiment: Test 4: Inhibition of Cellular Release of Amyloid Peptide 1-40; format: cell-based; details: Cricetulus griseus, Chinese hamster ovary cells transfected with the gene for amyloid precursor protein, 24 hours with test compound, amyloid peptide 1-40 in supernatant, read-out: Bace IC50
Procedure: Test 4: Inhibition of Cellular Release of Amyloid Peptide 1-40
Chinese hamster ovary cells are transfected with the gene for amyloid precursor protein. The cells are plated at a density of 8000 cells/well into 96-well microtiter plates and cultivated for 24 hours in DMEM cell culture medium containing 10% FCS. The test compound is added to the cells at various concentrations, and the cells are cultivated for 24 hours in the presence of the test compound. The supernatants are collected, and the concentration of amyloid peptide 1-40 is determined using state of the art immunoassay techniques, for example sandwich ELISA, homogenous time-resolved fluorescence (HTRF) immunoassay, or electro-chemiluminescence immunoassay.

Human BACE-1 = Human BACE-1 (Homo sapiens, UniProt P56817); experiment: Test 1: Inhibition of Human BACE-1; format: biochemical; details: Test 1; recombinant BACE-1 (extracellular domain), acetate buffer pH 4.5, 1 hour with test compound at room temperature, fluorescence-quenched peptide substrate; read-out: Bace IC50
Chain of Human BACE-1 (P56817 46-457 limits assumed): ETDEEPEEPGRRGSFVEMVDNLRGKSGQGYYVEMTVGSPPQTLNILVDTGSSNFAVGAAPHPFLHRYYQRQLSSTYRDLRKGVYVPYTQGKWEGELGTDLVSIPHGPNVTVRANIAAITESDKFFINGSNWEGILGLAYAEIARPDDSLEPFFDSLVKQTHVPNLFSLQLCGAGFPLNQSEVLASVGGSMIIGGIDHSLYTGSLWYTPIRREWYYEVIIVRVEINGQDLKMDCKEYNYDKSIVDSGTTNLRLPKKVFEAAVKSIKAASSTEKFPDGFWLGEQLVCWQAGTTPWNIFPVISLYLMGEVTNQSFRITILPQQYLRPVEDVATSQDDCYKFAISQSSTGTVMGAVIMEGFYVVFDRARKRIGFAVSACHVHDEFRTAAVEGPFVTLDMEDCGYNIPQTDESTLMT

IC50 [1] [nM] | IC50 (Human BACE-1) [nM] | SMILES
1200 | 2200 | NC1=N[C@@](c2cc(NC(=O)c3cn4ccccc4n3)ccc2F)(C(F)F)COC1 [Example 129, Imidazo[1,2-a]pyridine-2-carboxylic acid [3-((R)-5-amino-3-difluoromethyl-3,6-dihydro-2H-[1,4]oxazin-3-yl)-4-fluoro-phenyl]-amide hydrochloride]
6 | 17 | Cc1cc(C#N)cnc1C(=O)Nc1ccc(F)c([C@]2(C(F)F)COCC(N)=N2)c1 [Example 144, 5-Cyano-3-methyl-pyridine-2-carboxylic acid [3-((R)-5-amino-3-difluoromethyl-3,6-dihydro-2H-[1,4]oxazin-3-yl)-4-fluoro-phenyl]-amide]
8 | 79 | [2H]c1nc(C(=O)Nc2ccc(F)c([C@]3(C(F)F)COCC(N)=N3)c2)c(C([2H])([2H])[2H])c([2H])c1C#N [Example 147, 5-Cyano-4,6-dideutero-3-trideuteromethyl-pyridine-2-carboxylic acid [3-((R)-5-amino-3-difluoromethyl-3,6-diydro-2H-[1,4]oxazin-3-yl)-4-fluoro-phenyl]-amide]
4 | 16 | COc1cnc(C(=O)Nc2ccc(F)c([C@]3(C(F)F)COCC(N)=N3)c2)c(N)n1 [Example 175, 3-Amino-5-methoxy-pyrazine-2-carboxylic acid [3-((R)-5-amino-3-difluoromethyl-3,6-dihydro-2H-[1,4]oxazin-3-yl)-4-fluoro-phenyl]-amide]

SMILES | IC50 [1] [nM] | IC50 (Human BACE-1) [nM]
Cc1nc(C(=O)Nc2cccc(C3(C(F)F)COCC(N)=N3)c2)co1 (centres unmarked) [Example 104, 2-Methyl-oxazole-4-carboxylic acid [3-(5-amino-3-difluoromethyl-3,6-dihydro-2H-[1,4]oxazin-3-yl)-phenyl]-amide hydrochloride] | 150 | 1500
Cl.[2H]c1nc(C(=O)Nc2ccc(F)c([C@]3(C(F)F)COCC(N)=N3)c2)c(C([2H])([2H])[2H])c([2H])c1Br [Example 116, 5-Bromo-4,6-dideutero-3-trideuteromethyl-pyridine-2-carboxylic acid [3-((R)-5-amino-3-difluoromethyl-3,6-dihydro-2H-[1,4]oxazin-3-yl)-4-fluoro-phenyl]-amide hydrochloride] | 4 | 18
CC#CCOc1cnc(C(=O)Nc2ccc(F)c([C@]3(C(F)F)COCC(N)=N3)c2)cn1 [Example 164, 5-But-2-ynyloxy-pyrazine-2-carboxylic acid [3-((R)-5-amino-3-difluoromethyl-3,6-dihydro-2H-[1,4]oxazin-3-yl)-4-fluoro-phenyl]-amide] | 1 | 1
